{"source": "the supplement of paper PMC10307832", "experiment_in_all_cases": "relative viability (nuclei count vs DMSO), 5 days (fraction); higher = more cells survive", "key": {"Sulindac + Luminespib": {"compound": "CC1=C(CC(=O)O)c2cc(F)ccc2/C1=C\\c1ccc([S+](C)[O-])cc1 [Sulindac] + CCNC(=O)c1noc(-c2cc(C(C)C)c(O)cc2O)c1-c1ccc(CN2CCOCC2)cc1 [Luminespib] (partner 0.01 µM)", "in_short": "(§1)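 Five library-drug doses in √10 steps were combined with a fixed anchor-drug dose, or a single drug was given alone, by pin tool to lung cancer cell lines in 1536-well plates the day after seeding. Nuclei were stained and counted after 5 days. Relative viability is the nuclei count in treated wells over that in vehicle wells, taken as the median of duplicate plates.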"}, "Sulindac + AZD7762": {"compound": "CC1=C(CC(=O)O)c2cc(F)ccc2/C1=C\\c1ccc([S+](C)[O-])cc1 [Sulindac] + NC(=O)Nc1cc(-c2cccc(F)c2)sc1C(=O)N[C@H]1CCCNC1 [AZD7762] (partner 0.2 µM)", "in_short": "as §1"}, "[1]": {"compound": "O=c1[nH]cc(F)c(=O)[nH]1 [5-Fluorouracil] + CS(=O)(=O)N1CCN(Cc2cc3nc(-c4cccc5[nH]ncc45)nc(N4CCOCC4)c3s2)CC1 [Pictilisib] (partner 1 µM)", "in_short": "as §1"}, "Sulindac + Lapatinib": {"compound": "CC1=C(CC(=O)O)c2cc(F)ccc2/C1=C\\c1ccc([S+](C)[O-])cc1 [Sulindac] + CS(=O)(=O)CCNCc1ccc(-c2ccc3ncnc(Nc4ccc(OCc5cccc(F)c5)c(Cl)c4)c3c2)o1 [Lapatinib] (partner 2 µM)", "in_short": "as §1"}}}
{"cell line": "NCI-H23", "values": [{"measurement": "relative viability", "setting": "Sulindac + Luminespib; first compound 0.08 µM", "value": 0.174}, {"measurement": "relative viability", "setting": "Sulindac + Luminespib; first compound 2.53 µM", "value": 0.234}, {"measurement": "relative viability", "setting": "Sulindac + Luminespib; first compound 8 µM", "value": 0.243}, {"measurement": "relative viability", "setting": "Sulindac + AZD7762; first compound 0.08 µM", "value": 0.294}, {"measurement": "relative viability", "setting": "Sulindac + AZD7762; first compound 0.253 µM", "value": 0.22}, {"measurement": "relative viability", "setting": "Sulindac + AZD7762; first compound 0.8 µM", "value": 0.273}, {"measurement": "relative viability", "setting": "Sulindac + AZD7762; first compound 2.53 µM", "value": 0.256}, {"measurement": "relative viability", "setting": "Sulindac + AZD7762; first compound 8 µM", "value": 0.232}, {"measurement": "relative viability", "setting": "[1]; first compound 0.02 µM", "value": 0.565}, {"measurement": "relative viability", "setting": "[1]; first compound 0.2 µM", "value": 0.53}, {"measurement": "relative viability", "setting": "[1]; first compound 0.6325 µM", "value": 0.374}, {"measurement": "relative viability", "setting": "[1]; first compound 2 µM", "value": 0.251}, {"measurement": "relative viability", "setting": "Sulindac + Lapatinib; first compound 0.08 µM", "value": 1.26}, {"measurement": "relative viability", "setting": "Sulindac + Lapatinib; first compound 0.253 µM", "value": 1.17}, {"measurement": "relative viability", "setting": "Sulindac + Lapatinib; first compound 0.8 µM", "value": 0.996}, {"measurement": "relative viability", "setting": "Sulindac + Lapatinib; first compound 2.53 µM", "value": 0.98}, {"measurement": "relative viability", "setting": "Sulindac + Lapatinib; first compound 8 µM", "value": 1.3}]}
{"cell line": "NCI-H1395", "values": [{"measurement": "relative viability", "setting": "Sulindac + Luminespib; first compound 0.08 µM", "value": 0.713}, {"measurement": "relative viability", "setting": "Sulindac + Luminespib; first compound 0.253 µM", "value": 0.68}, {"measurement": "relative viability", "setting": "Sulindac + Luminespib; first compound 0.8 µM", "value": 0.611}, {"measurement": "relative viability", "setting": "Sulindac + Luminespib; first compound 2.53 µM", "value": 0.709}, {"measurement": "relative viability", "setting": "Sulindac + Luminespib; first compound 8 µM", "value": 0.643}, {"measurement": "relative viability", "setting": "Sulindac + AZD7762; first compound 0.08 µM", "value": 0.387}, {"measurement": "relative viability", "setting": "Sulindac + AZD7762; first compound 0.253 µM", "value": 0.378}, {"measurement": "relative viability", "setting": "Sulindac + AZD7762; first compound 0.8 µM", "value": 0.4}, {"measurement": "relative viability", "setting": "Sulindac + AZD7762; first compound 2.53 µM", "value": 0.401}, {"measurement": "relative viability", "setting": "Sulindac + AZD7762; first compound 8 µM", "value": 0.401}, {"measurement": "relative viability", "setting": "[1]; first compound 0.02 µM", "value": 0.581}, {"measurement": "relative viability", "setting": "[1]; first compound 0.2 µM", "value": 0.62}, {"measurement": "relative viability", "setting": "[1]; first compound 0.6325 µM", "value": 0.578}, {"measurement": "relative viability", "setting": "[1]; first compound 2 µM", "value": 0.594}, {"measurement": "relative viability", "setting": "Sulindac + Lapatinib; first compound 0.08 µM", "value": 1.2}, {"measurement": "relative viability", "setting": "Sulindac + Lapatinib; first compound 0.253 µM", "value": 1.08}, {"measurement": "relative viability", "setting": "Sulindac + Lapatinib; first compound 0.8 µM", "value": 1.01}, {"measurement": "relative viability", "setting": "Sulindac + Lapatinib; first compound 2.53 µM", "value": 0.8}, {"measurement": "relative viability", "setting": "Sulindac + Lapatinib; first compound 8 µM", "value": 1.15}]}
{"cell line": "NCI-H647", "values": [{"measurement": "relative viability", "setting": "Sulindac + Luminespib; first compound 0.08 µM", "value": 0.187}, {"measurement": "relative viability", "setting": "Sulindac + Luminespib; first compound 0.253 µM", "value": 0.125}, {"measurement": "relative viability", "setting": "Sulindac + Luminespib; first compound 0.8 µM", "value": 0.169}, {"measurement": "relative viability", "setting": "Sulindac + Luminespib; first compound 2.53 µM", "value": 0.122}, {"measurement": "relative viability", "setting": "Sulindac + Luminespib; first compound 8 µM", "value": 0.134}, {"measurement": "relative viability", "setting": "Sulindac + AZD7762; first compound 0.08 µM", "value": 0.592}, {"measurement": "relative viability", "setting": "Sulindac + AZD7762; first compound 0.253 µM", "value": 0.5}, {"measurement": "relative viability", "setting": "Sulindac + AZD7762; first compound 0.8 µM", "value": 0.362}, {"measurement": "relative viability", "setting": "Sulindac + AZD7762; first compound 2.53 µM", "value": 0.575}, {"measurement": "relative viability", "setting": "Sulindac + AZD7762; first compound 8 µM", "value": 0.488}, {"measurement": "relative viability", "setting": "[1]; first compound 0.02 µM", "value": 0.473}, {"measurement": "relative viability", "setting": "[1]; first compound 0.2 µM", "value": 0.483}, {"measurement": "relative viability", "setting": "[1]; first compound 0.6325 µM", "value": 0.429}, {"measurement": "relative viability", "setting": "[1]; first compound 2 µM", "value": 0.401}, {"measurement": "relative viability", "setting": "Sulindac + Lapatinib; first compound 0.08 µM", "value": 1.22}, {"measurement": "relative viability", "setting": "Sulindac + Lapatinib; first compound 0.253 µM", "value": 1.13}, {"measurement": "relative viability", "setting": "Sulindac + Lapatinib; first compound 0.8 µM", "value": 0.651}, {"measurement": "relative viability", "setting": "Sulindac + Lapatinib; first compound 2.53 µM", "value": 1.38}, {"measurement": "relative viability", "setting": "Sulindac + Lapatinib; first compound 8 µM", "value": 1.32}]}
